One block for each molecule: values may come before it. Active and inactive are the calls of the source.
How the values were obtained:
[1] = biological target: Serine/threonine-protein phosphatase (Homo sapiens, UniProt Q9BPW0); experiment: PP5 phosphatase inhibitors, dose response, biochemical, fluorescence (AID 2395)
[2] = biological target: T1, Apoptotic protease-activating factor 1 (Homo sapiens, UniProt O14727); assay type: functional
T1 sequence (O14727 whole entry): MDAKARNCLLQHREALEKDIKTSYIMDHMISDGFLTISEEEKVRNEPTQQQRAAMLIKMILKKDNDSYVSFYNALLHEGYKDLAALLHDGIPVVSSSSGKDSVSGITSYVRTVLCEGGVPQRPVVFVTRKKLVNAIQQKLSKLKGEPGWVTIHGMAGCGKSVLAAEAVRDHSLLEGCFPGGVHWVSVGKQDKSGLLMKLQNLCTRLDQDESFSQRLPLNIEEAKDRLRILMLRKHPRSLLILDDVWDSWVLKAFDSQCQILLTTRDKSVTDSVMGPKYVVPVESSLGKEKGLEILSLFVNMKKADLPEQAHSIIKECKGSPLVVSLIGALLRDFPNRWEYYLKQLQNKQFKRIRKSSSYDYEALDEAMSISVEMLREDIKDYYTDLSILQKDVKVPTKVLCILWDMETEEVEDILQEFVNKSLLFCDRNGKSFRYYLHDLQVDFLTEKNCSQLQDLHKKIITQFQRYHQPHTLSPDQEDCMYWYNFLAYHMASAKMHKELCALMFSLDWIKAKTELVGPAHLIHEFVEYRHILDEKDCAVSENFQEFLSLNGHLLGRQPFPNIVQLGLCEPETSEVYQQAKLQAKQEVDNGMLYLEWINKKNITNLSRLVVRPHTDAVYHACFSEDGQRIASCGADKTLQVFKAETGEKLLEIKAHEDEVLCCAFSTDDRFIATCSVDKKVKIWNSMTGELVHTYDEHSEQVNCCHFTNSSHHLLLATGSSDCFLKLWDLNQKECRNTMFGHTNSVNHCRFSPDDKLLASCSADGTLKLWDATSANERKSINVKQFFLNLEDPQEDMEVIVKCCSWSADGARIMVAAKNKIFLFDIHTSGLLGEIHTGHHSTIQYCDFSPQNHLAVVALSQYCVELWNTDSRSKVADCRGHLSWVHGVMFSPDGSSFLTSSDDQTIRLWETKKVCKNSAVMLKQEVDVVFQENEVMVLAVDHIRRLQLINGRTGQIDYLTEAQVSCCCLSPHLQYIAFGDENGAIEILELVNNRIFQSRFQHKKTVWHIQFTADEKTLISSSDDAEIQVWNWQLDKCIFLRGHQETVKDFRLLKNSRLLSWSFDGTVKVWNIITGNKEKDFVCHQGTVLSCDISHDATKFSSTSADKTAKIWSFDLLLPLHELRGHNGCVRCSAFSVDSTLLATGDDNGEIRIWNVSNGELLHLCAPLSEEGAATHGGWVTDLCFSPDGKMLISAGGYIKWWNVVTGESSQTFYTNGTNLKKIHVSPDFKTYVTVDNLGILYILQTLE

[3] = biological target: T2, Sentrin-specific protease 8 (Homo sapiens, UniProt Q96LD8); assay type: functional;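 further: luminescence read-out of SENP8 inhibition, dose-response confirmation following an ultra-high-throughput screen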
T2 sequence (Q96LD8 whole entry): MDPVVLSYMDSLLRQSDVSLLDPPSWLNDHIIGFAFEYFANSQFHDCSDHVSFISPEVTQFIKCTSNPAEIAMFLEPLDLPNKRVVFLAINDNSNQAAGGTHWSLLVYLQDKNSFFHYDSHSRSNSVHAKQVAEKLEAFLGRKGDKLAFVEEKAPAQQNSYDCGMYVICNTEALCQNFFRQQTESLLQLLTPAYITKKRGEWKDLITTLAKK

[4] = biological target: ALK tyrosine kinase receptor (Homo sapiens, UniProt Q9UM73); assay type: functional;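 further: ALK tested as one member of a kinase panel screen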
[5] = biological target: Tyrosine-protein kinase ABL1 (Homo sapiens, UniProt P00519); assay type: functional
[6] = biological target: Mitogen-activated protein kinase 9 (Homo sapiens, UniProt P45984); assay type: functional;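 further: value from a kinome panel profiling assay, MAPK9 panel entry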
[7] = biological target: Macrophage colony-stimulating factor 1 receptor (Homo sapiens, UniProt P07333); assay type: functional;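 further: value comes from the Navigating the Kinome screening panel, CSF1R member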
[8] = biological target: Phosphorylase b kinase gamma catalytic chain, liver/testis isoform (Homo sapiens, UniProt P15735); assay type: functional;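 further: PHKG2 measured as one member of a kinome-wide kinase panel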
[9] = biological target: Casein kinase I isoform delta (Homo sapiens, UniProt P48730); assay type: functional;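 further: measured as one member (CSNK1D) of a kinome panel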
[10] = biological target: Calcium/calmodulin-dependent protein kinase type II subunit delta (Homo sapiens, UniProt Q13557); assay type: functional
[11] = biological target: Tyrosine-protein kinase Lck (Homo sapiens, UniProt P06239); assay type: functional;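 further: lck was assayed as one member of a kinase panel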
[12] = biological target: Proto-oncogene tyrosine-protein kinase ROS (Homo sapiens, UniProt P08922); assay type: functional;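 further: ROS1 tested as one member of a kinome-wide kinase panel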
[13] = biological target: Glycogen synthase kinase-3 alpha (Homo sapiens, UniProt P49840); assay type: functional;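 further: GSK3A result taken from a broad kinome-wide kinase panel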
[14] = biological target: Serine/threonine-protein kinase MRCK alpha (Homo sapiens, UniProt Q5VT25); assay type: functional
[15] = biological target: Serine/threonine-protein kinase PLK1 (Homo sapiens, UniProt P53350); assay type: functional;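 further: PLK1 measured as one member of a kinome-wide profiling panel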
[16] = biological target: Cyclin-dependent kinase 1 (Homo sapiens, UniProt P06493); assay type: functional;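 further: Kinome-wide panel profiling, with the target listed as panel member CDC2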
[17] = biological target: MAP kinase-interacting serine/threonine-protein kinase 2 (Homo sapiens, UniProt Q9HBH9); assay type: functional
[18] = biological target: Dual specificity protein kinase CLK4 (Homo sapiens, UniProt Q9HAZ1); assay type: functional
Activated CDC42 kinase 1 = Activated CDC42 kinase 1 (Homo sapiens, UniProt Q07912); experiment: Navigating the Kinome. Panel member name: ACK1; assay type: functional
[19] = biological target: Homeodomain-interacting protein kinase 2 (Homo sapiens, UniProt Q9H2X6); assay type: functional;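 further: measured within a kinome-wide kinase profiling panel, HIPK2 being one panel member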
[20] = biological target: Protein-tyrosine kinase 2-beta (Homo sapiens, UniProt Q14289); assay type: functional
[21] = biological target: Macrophage-stimulating protein receptor (Homo sapiens, UniProt Q04912); experiment: Navigating the Kinome. Panel member name: MST1R; assay type: functional
[22] = biological target: Fibroblast growth factor receptor 3 (Homo sapiens, UniProt P22607); assay type: functional
SRSF protein kinase 1 = SRSF protein kinase 1 (Homo sapiens, UniProt Q96SB4); assay type: functional;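 further: measured as one member of a kinome-wide kinase profiling panel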
[23] = biological target: Receptor-type tyrosine-protein kinase FLT3 (Homo sapiens, UniProt P36888); assay type: functional;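 further: FLT3 was tested as one member of a kinome-wide kinase panel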
[24] = biological target: Epidermal growth factor receptor (Homo sapiens, UniProt P00533)

Proto-oncogene tyrosine-protein kinase ROS, sequence (P08922 whole entry): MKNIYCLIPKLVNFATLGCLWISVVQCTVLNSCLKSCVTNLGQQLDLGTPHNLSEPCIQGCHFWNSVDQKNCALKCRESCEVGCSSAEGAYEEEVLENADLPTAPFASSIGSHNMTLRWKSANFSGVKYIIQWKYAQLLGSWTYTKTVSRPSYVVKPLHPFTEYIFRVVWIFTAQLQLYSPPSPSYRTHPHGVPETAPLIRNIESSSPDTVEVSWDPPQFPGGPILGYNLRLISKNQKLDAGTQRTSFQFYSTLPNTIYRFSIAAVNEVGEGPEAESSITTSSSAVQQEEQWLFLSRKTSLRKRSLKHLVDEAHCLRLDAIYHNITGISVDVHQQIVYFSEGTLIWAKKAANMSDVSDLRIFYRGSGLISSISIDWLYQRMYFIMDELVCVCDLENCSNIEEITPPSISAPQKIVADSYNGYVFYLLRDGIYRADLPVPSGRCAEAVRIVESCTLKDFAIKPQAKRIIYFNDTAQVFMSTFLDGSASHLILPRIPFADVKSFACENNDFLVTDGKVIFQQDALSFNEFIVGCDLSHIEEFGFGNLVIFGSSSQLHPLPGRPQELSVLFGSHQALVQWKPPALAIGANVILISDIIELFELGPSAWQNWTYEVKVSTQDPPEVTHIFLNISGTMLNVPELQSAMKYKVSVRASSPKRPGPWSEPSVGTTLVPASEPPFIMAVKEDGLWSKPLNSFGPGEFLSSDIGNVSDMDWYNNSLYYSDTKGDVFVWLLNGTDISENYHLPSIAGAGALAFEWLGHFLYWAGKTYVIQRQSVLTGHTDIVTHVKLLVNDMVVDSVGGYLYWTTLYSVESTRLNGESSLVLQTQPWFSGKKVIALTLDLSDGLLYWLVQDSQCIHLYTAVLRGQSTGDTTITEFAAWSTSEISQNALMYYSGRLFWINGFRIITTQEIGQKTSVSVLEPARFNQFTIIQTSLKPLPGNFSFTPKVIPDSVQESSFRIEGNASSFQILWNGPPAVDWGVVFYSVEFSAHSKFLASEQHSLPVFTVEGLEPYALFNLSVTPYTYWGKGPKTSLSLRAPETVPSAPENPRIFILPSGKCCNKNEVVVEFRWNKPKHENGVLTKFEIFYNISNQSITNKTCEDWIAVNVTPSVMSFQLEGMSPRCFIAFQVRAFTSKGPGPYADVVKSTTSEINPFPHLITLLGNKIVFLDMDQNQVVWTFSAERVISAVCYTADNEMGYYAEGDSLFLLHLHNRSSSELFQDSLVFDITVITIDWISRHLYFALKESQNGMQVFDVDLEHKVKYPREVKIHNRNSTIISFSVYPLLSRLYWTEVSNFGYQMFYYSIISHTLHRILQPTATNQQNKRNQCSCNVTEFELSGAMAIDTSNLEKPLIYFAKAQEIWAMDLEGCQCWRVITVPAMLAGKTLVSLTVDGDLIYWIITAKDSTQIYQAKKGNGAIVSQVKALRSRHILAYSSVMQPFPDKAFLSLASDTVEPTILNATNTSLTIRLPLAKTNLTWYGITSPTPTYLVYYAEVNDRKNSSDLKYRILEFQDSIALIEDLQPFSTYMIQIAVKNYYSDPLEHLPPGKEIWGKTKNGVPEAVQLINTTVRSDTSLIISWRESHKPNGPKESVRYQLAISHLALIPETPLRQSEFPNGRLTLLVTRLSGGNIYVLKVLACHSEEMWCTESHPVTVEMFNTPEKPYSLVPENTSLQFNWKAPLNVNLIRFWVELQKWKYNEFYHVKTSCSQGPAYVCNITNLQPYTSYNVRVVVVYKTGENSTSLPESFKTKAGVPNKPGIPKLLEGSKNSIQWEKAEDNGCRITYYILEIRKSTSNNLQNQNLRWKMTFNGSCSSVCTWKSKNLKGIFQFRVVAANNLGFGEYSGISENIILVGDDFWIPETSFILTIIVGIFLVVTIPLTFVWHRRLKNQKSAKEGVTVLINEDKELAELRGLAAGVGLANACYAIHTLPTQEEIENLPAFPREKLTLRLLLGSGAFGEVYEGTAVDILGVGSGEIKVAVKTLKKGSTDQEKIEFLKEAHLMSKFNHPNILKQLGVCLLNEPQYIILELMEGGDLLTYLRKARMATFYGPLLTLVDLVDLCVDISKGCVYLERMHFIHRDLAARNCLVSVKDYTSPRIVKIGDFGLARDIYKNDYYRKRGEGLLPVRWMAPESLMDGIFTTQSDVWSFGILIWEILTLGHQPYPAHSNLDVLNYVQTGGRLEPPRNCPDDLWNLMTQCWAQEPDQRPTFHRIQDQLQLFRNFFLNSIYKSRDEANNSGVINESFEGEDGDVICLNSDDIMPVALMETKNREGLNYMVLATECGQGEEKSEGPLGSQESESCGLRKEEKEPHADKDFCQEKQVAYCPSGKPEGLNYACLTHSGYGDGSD
Activated CDC42 kinase 1, sequence (Q07912 whole entry): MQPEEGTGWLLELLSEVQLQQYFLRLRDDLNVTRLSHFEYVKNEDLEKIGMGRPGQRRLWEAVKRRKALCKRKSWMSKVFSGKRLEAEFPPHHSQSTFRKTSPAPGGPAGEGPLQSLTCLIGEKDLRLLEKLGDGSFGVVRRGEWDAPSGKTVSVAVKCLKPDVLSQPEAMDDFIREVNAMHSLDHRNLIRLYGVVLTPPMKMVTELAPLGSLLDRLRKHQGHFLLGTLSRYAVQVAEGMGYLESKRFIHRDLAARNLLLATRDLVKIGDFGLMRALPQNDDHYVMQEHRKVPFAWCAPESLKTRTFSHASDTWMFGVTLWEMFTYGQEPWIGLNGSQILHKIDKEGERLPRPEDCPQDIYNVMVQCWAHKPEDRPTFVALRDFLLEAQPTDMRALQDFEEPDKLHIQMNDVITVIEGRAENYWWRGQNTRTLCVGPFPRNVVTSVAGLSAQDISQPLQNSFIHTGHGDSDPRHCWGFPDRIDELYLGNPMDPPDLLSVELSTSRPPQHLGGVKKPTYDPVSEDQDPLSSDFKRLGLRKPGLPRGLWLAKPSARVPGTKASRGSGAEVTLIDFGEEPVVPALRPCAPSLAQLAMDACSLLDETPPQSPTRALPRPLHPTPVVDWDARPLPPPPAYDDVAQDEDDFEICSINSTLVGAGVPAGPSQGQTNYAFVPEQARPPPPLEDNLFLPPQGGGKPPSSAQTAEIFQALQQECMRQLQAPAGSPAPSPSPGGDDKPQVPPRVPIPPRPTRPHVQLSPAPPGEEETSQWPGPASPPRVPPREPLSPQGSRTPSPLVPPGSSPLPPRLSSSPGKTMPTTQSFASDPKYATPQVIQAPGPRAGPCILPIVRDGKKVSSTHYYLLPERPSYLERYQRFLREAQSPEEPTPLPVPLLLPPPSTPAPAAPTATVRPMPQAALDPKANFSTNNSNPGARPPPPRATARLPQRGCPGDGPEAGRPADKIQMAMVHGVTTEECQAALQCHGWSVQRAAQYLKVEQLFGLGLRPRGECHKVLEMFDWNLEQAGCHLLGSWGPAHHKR
MAP kinase-interacting serine/threonine-protein kinase 2, sequence (Q9HBH9 whole entry): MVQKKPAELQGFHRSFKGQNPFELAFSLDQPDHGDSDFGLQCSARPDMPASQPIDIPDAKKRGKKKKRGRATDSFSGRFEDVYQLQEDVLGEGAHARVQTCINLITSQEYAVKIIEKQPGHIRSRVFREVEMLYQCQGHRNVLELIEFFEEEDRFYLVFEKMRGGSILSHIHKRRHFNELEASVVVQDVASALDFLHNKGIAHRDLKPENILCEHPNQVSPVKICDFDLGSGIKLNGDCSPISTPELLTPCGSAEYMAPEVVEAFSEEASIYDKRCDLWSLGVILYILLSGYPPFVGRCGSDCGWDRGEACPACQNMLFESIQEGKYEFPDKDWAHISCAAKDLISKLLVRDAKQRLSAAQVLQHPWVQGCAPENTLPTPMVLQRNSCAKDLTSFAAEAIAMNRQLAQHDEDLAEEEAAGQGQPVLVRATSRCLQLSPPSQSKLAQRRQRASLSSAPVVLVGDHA
Tyrosine-protein kinase ABL1, sequence (P00519 whole entry): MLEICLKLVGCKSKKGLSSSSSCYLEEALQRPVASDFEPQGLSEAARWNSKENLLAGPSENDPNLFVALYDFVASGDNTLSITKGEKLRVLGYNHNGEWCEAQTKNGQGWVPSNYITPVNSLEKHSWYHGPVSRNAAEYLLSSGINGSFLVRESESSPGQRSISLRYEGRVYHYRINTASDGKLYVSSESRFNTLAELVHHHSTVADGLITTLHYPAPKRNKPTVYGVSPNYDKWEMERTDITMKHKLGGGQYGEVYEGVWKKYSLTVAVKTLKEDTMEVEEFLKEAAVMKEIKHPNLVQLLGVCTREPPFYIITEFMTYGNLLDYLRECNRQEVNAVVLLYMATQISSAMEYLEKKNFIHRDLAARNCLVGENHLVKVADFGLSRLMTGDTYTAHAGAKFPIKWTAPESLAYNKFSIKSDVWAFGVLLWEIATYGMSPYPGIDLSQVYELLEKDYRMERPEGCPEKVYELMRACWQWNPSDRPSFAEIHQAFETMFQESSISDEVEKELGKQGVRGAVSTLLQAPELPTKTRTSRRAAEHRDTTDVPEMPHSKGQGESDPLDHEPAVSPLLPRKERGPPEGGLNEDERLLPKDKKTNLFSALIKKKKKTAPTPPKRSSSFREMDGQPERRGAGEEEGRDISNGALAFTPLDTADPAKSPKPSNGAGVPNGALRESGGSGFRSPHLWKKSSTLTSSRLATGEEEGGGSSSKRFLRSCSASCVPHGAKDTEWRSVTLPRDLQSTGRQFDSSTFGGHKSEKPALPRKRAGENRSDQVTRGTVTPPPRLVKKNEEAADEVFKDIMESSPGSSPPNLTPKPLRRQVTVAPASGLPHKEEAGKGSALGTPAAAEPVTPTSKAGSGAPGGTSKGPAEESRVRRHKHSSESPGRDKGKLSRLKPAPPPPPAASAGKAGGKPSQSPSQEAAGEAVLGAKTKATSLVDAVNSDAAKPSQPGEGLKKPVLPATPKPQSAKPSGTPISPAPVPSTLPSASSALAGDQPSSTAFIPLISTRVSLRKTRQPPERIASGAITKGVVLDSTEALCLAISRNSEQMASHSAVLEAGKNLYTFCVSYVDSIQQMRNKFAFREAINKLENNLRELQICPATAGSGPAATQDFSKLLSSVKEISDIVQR

Structure (SMILES): COc1cc(Br)c(C(=O)c2nccc3cc(OC)c(OC)cc23)cc1OC
IC50 [1]: 5.92 µM (active)
IC50 [2]: 7.37 µM (active)

Structure (SMILES): Cc1c(NC(=O)C(C)OC(=O)c2ccc([N+](=O)[O-])s2)c(=O)n(-c2ccccc2)n1C (stereo unspecified)
IC50 [3]: 6.5 µM (active)

Ki [4]: 2 µM (active)
Ki [5]: > 0.631 µM (inactive)
Ki [6]: > 3.98 µM (inactive)
Ki [7]: > 2.51 µM (inactive)
Ki [8]: > 5.01 µM (inactive)
Ki [9]: > 7.94 µM (inactive)
Ki [10]: 3.16 µM (active)
Ki [11]: > 3.98 µM (inactive)
Ki [12]: > 2 µM (inactive)
Ki [13]: > 6.31 µM (inactive)
Ki [14]: 3.98 µM (active)
Ki [15]: > 7.94 µM (inactive)
Ki [16]: 0.631 µM (active)
Ki [17]: 2 µM (active)
Ki [18]: 0.158 µM (active)
Ki (Activated CDC42 kinase 1): > 3.98 µM (inactive)
Ki [19]: > 3.16 µM (inactive)
Ki [20]: > 1.58 µM (inactive)
Ki [21]: 2 µM (active)
Ki [22]: > 2 µM (inactive)
Ki (SRSF protein kinase 1): > 7.94 µM (inactive)
Ki [23]: > 3.16 µM (inactive)
Ki [24]: > 2 µM (inactive)
Structure (SMILES): CC(N)C1CCC(C(=O)Nc2ccnc3[nH]ccc23)CC1 (stereo unspecified)
